Measured values taken from ChEMBL document CHEMBL1201862, “PubChem BioAssay data set” (2004).
Active and inactive are the calls of the source.

How the values were obtained:
Estrogen receptor beta = Estrogen receptor beta (Homo sapiens, UniProt Q92731); assay: ERβ–SRC-3 coactivator interaction inhibitors, confirmation, orthogonal assay, biochemical, ELISA, streptavidin-HRP readout (AID 1060)
[1] = P. falciparum 3D7-ScDHODH growth inhibitors, dose response, SYBR Green, dry powder samples (AID 1159570); assay type: functional, cell-based;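 further: parasite growth measured after 72 hours of compound exposure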
[2] = HepG2 cell cytotoxicity, dose response, cytotoxicity control, plate reader, dry powder samples (AID 1159569); assay type: functional, cell-based;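 further: inhibitor potency with signal falling toward the positive control level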
[3] = P. falciparum Dd2 growth inhibitors, dose response, SYBR Green, cherry-picked samples (AID 1159567); assay type: functional, cell-based
[4] = P. falciparum Dd2 growth inhibitors, dose response, SYBR Green, dry powder samples (AID 1159566); assay type: functional, cell-based;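 further: potency for growth inhibition with lower SYBR green DNA signal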
[5] = P. falciparum ATP4 D1247Y mutant growth inhibitors, dose response, NITD609-resistant line, SYBR Green, dry powder (AID 1159571); assay type: functional, cell-based;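 further: parasites synchronized at ring stage by sorbitol before testing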
Cytochrome P450 2C9 = Cytochrome P450 2C9 (Homo sapiens, UniProt P11712)
[6] = target: T1, Microphthalmia-associated transcription factor (Homo sapiens, UniProt O75030); assay: TRPM1 promoter luciferase signal decrease, dose response, MITF inhibitor project, cell-based, SK-MEL-5, cherry-picked, set 3 (AID 493073); assay type: functional
T1 sequence (O75030 whole entry): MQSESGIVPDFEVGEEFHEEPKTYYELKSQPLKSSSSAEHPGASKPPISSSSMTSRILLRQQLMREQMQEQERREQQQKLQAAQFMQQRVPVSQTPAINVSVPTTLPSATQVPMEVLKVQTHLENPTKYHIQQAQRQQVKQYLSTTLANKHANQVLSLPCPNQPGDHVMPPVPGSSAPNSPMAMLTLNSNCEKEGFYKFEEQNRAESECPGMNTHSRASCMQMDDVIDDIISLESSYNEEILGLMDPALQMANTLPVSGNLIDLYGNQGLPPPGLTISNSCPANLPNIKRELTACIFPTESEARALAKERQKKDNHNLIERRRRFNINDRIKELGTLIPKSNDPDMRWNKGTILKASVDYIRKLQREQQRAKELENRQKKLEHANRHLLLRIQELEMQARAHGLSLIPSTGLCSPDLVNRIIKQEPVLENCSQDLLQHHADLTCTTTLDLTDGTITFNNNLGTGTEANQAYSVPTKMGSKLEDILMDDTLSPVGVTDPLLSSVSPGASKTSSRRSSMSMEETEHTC

[7] = target: T2, Ubiquitin-conjugating enzyme E2 N (Homo sapiens, UniProt P61088); assay type: functional;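 further: Dose-response confirmation in a TR-FRET assay detecting UBC13-driven polyubiquitin chain formation, inhibition measured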
T2 sequence (P61088 whole entry): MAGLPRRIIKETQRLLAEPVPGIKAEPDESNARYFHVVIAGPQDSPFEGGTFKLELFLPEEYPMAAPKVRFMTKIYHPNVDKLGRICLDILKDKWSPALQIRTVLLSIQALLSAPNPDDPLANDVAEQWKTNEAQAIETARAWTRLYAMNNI

[8] = intracellular Trypanosoma cruzi inhibitors in host cells – cell-based, plate reader, cherry-pick samples, set 3, dose response (AID 651818); assay type: functional;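 further: compounds incubated with infected cells for about four days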
cells [9] = assay type: functional
[10] = HepG2 cell cytotoxicity, dose response, cytotoxicity control, cherry-picked samples (AID 1159577); assay type: functional, cell-based
Cytochrome P450 2C19 = Cytochrome P450 2C19 (Homo sapiens, UniProt P33261); assay: Cytochrome panel assay with activity outcomes. Panel member name: p450-cyp2c19 Compounds with AC50 equal or less than 10 uM are considered active; assay type: functional; conditions: read-out: AC50
Cytochrome P450 3A4 = Cytochrome P450 3A4 (Homo sapiens, UniProt P08684);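 further: CYP3A4 tested as one member of a cytochrome P450 panel screen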
[11] = target: T3, DNA repair protein RAD52 homolog (Homo sapiens, UniProt P43351); assay type: functional, biochemical
T3 sequence (P43351 whole entry): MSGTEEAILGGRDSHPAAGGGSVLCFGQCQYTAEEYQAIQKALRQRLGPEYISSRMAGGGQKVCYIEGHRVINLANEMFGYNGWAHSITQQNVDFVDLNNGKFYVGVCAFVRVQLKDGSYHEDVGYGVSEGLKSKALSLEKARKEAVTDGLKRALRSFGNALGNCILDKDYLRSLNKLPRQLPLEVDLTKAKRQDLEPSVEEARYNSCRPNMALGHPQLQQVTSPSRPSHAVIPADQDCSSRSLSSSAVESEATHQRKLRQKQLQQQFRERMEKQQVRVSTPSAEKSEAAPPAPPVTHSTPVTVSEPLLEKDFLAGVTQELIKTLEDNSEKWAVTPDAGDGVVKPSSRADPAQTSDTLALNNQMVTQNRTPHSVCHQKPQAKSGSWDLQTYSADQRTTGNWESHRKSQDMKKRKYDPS

[12] = inhibitors of intracellular T. cruzi replication, confirmation, NIH3T3 host cells, beta-gal luminescence (AID 2044); assay type: functional, cell-based;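 further: intracellular parasites grown in NIH/3T3 mouse fibroblasts as host cells; luminescent beta-galactosidase reporter signal from transgenic T. cruzi replicating inside host cells; inhibitors lower the luminescence signal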
[13] = cytotoxicity toward NIH3T3 fibroblasts, dose response, counter-screen, cell-based, ATP luminescence, mouse fibroblasts (AID 2010); assay type: functional;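 further: cells exposed to compound for about 90 hours before reading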
cells [14] = assay: cells
[15] = HEp-2 cell cytotoxicity, dose response, cytotoxicity control for RSV inhibitor project, HTS (AID 2410); assay type: functional; conditions: human respiratory syncytial virus
[16] = target: T4, RNA-binding protein pos-1 (Caenorhabditis elegans, UniProt G5EF15); assay: inhibitors of POS-1/mex-3 RNA binding, dose response, biochemical, fluorescence polarization (AID 1964);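 further: purified POS-1 fused to maltose binding protein made in E. coli; potency of compounds blocking POS-1 binding to fluorescent RNA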
T4 sequence (G5EF15 whole entry): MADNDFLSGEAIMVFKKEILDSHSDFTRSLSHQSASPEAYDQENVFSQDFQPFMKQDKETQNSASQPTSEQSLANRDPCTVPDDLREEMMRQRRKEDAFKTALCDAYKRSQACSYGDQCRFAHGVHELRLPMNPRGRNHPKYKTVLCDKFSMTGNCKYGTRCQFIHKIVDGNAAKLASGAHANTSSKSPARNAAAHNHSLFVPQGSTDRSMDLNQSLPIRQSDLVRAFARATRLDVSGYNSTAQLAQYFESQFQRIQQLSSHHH

[17] = target: T5, Zinc finger protein mex-5 (Caenorhabditis elegans, UniProt Q9XUB2); assay: MEX-5/TCR-2 RNA interaction inhibitors, dose response, biochemical, C. elegans, fluorescence polarization (AID 1960)
T5 sequence (Q9XUB2 whole entry): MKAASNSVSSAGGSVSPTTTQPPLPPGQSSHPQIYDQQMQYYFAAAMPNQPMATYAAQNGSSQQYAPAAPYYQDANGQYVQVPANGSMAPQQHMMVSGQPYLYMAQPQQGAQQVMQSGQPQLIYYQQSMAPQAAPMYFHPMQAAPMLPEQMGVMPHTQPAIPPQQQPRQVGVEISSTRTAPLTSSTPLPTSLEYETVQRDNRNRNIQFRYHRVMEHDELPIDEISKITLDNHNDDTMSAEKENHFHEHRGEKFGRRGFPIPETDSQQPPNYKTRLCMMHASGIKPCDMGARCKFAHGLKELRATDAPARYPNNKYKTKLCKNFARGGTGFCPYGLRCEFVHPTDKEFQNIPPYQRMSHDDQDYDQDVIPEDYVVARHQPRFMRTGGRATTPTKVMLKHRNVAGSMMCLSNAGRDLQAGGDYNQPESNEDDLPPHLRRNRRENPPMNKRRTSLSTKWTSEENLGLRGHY

Paired box protein Pax-8 = Paired box protein Pax-8 (Homo sapiens, UniProt Q06710); assay: inhibitors of PAX8-driven TPO luciferase reporter, dose response, RMG-I cells, cherry-pick (AID 687027); assay type: functional, cell-based;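 further: luciferase reporter driven by Pax8 target thyroperoxidase promoter measured by SteadyGlo luminescence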
[18] = NIH:OVCAR-3 ovarian cancer cell cytotoxicity, dose response, PAX8 inhibitor project, plate reader, dry powder samples (AID 743044); assay type: functional, cell-based
[19] = growth suppression of PTEN-null colon cells, dose response, cell-based, HCT116 PTEN knockout (AID 1047); assay type: functional;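 further: HCT116 colon tumor cells with PTEN knocked out; cells exposed to compound for 60 hours before readout; potency for loss of cell viability measured by luminescence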
[20] = growth suppression of beta-catenin-knockout colon cells, dose response, cell-based, HCT116, human colon tumor (AID 1045); assay type: functional;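 further: HCT116 colon tumor cells with beta catenin knocked out; cells exposed to compound for 60 hours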

Cytochrome P450 2C9, sequence (P11712 whole entry): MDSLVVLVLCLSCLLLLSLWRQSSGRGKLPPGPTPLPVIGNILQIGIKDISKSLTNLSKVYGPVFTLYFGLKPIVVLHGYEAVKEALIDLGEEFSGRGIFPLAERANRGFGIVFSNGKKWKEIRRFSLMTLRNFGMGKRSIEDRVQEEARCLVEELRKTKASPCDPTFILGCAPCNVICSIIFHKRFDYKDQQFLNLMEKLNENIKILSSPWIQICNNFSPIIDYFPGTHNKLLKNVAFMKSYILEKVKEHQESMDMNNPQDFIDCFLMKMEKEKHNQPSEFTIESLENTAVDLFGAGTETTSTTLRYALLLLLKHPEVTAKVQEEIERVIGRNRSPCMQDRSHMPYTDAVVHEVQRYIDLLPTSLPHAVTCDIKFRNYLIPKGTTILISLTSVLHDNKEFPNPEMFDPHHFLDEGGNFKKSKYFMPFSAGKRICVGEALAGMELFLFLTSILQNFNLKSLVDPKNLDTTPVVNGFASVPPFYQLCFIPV
Estrogen receptor beta, sequence (Q92731 whole entry): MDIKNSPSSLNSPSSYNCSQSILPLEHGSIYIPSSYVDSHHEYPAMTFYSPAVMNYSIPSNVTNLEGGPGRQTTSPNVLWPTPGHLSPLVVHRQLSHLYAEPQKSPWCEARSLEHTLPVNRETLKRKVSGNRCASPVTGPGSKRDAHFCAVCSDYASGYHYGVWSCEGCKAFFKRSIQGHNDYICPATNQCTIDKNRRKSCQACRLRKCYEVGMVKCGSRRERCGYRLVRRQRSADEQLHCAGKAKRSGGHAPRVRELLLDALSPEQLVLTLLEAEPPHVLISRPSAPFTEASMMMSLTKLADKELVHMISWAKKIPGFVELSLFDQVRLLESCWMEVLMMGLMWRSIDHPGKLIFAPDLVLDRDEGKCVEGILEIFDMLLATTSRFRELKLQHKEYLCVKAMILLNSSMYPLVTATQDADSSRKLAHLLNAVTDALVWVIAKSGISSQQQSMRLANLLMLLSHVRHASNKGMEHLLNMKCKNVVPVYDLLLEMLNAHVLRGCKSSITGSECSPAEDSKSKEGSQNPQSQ
Cytochrome P450 2C19, sequence (P33261 whole entry): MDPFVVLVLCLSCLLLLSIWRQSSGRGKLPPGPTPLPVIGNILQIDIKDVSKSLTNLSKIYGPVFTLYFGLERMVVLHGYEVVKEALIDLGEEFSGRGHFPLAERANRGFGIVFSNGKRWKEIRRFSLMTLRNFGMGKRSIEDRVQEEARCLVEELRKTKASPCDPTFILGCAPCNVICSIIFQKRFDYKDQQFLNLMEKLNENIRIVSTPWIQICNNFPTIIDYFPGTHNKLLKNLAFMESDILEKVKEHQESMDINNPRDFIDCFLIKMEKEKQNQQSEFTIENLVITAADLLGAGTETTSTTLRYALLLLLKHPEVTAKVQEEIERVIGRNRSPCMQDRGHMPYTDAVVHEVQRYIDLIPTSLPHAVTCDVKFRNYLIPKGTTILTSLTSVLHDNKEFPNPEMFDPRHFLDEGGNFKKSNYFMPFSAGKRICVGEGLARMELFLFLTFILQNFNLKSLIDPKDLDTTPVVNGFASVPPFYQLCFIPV
Paired box protein Pax-8, sequence (Q06710 whole entry): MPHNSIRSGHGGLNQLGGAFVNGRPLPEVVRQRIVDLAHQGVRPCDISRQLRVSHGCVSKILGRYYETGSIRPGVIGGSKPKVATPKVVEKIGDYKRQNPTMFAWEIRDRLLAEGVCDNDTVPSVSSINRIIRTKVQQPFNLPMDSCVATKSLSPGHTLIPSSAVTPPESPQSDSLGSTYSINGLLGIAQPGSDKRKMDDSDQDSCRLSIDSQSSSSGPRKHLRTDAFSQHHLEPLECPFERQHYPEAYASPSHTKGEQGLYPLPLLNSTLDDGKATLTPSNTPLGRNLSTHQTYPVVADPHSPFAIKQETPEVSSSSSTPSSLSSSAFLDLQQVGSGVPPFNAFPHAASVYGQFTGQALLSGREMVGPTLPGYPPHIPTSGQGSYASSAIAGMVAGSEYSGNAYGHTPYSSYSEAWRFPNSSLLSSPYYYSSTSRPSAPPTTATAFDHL
Cytochrome P450 3A4, sequence (P08684 whole entry): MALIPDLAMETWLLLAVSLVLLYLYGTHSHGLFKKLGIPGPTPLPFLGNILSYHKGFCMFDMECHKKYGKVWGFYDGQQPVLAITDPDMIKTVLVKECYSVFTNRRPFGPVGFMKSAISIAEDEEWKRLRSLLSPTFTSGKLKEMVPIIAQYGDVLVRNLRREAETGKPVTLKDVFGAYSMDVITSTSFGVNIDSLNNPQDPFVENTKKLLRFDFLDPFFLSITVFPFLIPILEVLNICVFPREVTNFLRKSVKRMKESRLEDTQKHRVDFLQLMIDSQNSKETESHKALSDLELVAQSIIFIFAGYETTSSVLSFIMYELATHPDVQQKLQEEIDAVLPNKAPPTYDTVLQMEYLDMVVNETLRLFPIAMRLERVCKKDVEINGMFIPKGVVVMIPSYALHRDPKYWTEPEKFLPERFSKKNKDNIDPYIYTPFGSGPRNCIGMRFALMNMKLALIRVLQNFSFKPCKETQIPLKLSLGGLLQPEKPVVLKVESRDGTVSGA

CC1CCCC(C)N1CC(=O)Nc1sc2c(c1C#N)CCC2 (centres undefined)
IC50 (Estrogen receptor beta): 22.5 µM (not active)

COc1cccc(NC(=O)N2[C@H](CO)[C@H](c3ccccc3)[C@H]2CNCC(C)C)c1
AC50 [1]: 1.35 µM (active)
AC50 [2]: 85.6 µM (active)
AC50 [3]: 1.78 µM (active)
AC50 [4]: 974 nM (active)
AC50 [5]: 1.26 µM (active)

COc1cc(C(=O)NCCC(C)C)c([N+](=O)[O-])cc1OC
AC50 (Cytochrome P450 2C9): inconclusive

S=C=Nc1cccc(C2(N3CCCCC3)CCCCC2)c1 [METAPHIT METHANESULFONATE]
AC50 [6]: 7.36 µM (active)

CC1CN(C(=O)CCC(=O)NCCCN2CCC(Cc3ccccc3)CC2)c2cc(Cl)ccc2O1 (centres undefined)
IC50 [7]: > 20 µM (inactive)
AC50 [6]: 16.2 µM (active)

C[C@@H]1CN([C@H](C)CO)C(=O)Cc2cc(NC(=O)Cc3cn(C)c4ccccc34)ccc2O[C@H]1CN(C)Cc1ccc(-c2ccccc2)cc1
AC50 [8]: 4.23 µM (active)

O=C(Nc1nnc(-c2ccc(Br)cc2)o1)C1=COCCO1
IC50 (cells [9]): 5.97 µM (active)

COc1ccc2c3c(n(C)c2c1)[C@@H](CO)N(Cc1ccccc1OC)CC31CCN(CC2CC2)CC1
AC50 [1]: 2.52 µM (active)
AC50 [2]: 34.5 µM (active)
AC50 [3]: 1.29 µM (active)
AC50 [4]: 522 nM (active)
AC50 [10]: > 39 µM (inactive)
AC50 [5]: 1.07 µM (active)

c1ccc(-c2ccc([C@@H]3[C@@H]4CN(Cc5cccnc5)C[C@H]3N4)cc2)cc1
AC50 [3]: 0.472 µM (active)
AC50 [10]: 9.31 µM (active)

COc1ccccc1S(=O)(=O)N(C)C[C@@H]1Oc2cc(C#CCC(C)C)ccc2S(=O)(=O)N([C@@H](C)CO)C[C@H]1C
AC50 [1]: 0.521 µM (active)
AC50 [2]: > 100 µM (inactive)
AC50 [3]: 0.652 µM (active)
AC50 [4]: 609 nM (active)
AC50 [5]: 0.331 µM (active)

O=C(c1ccccc1)N(Cc1ccco1)C1CCS(=O)(=O)C1 (centres undefined)
AC50 (Cytochrome P450 2C19): 31.6 µM (inconclusive)
AC50 (Cytochrome P450 2C9): inconclusive

O=C(N/N=C/c1cccc(F)c1)c1csc2c1CCCC2
AC50 (Cytochrome P450 3A4): 15.8 µM (inconclusive)
AC50 (Cytochrome P450 2C9): inconclusive

C1CCCCCC(NCCN2CCNCC2)CCCCC1
AC50 [11]: 23.1 µM (active)

CCOC(=O)N/N=C(/C)c1ccc([N+](=O)[O-])o1
EC50 [12]: 589 nM (active)
EC50 [13]: > 30 µM (not active)
AC50 (Cytochrome P450 2C19): 25.1 µM (inconclusive)
AC50 (Cytochrome P450 2C9): inconclusive

CCCC(=O)Nc1ccc(-c2nc3cc(C)c(C)cc3o2)cc1
IC50 (cells [14]): 48.2 µM (active)

CSc1ccccc1NC(=O)c1cc(C(C)C)on1
IC50 (cells [9]): 27.9 µM (active)

N#Cc1nc(-c2cccc3ccccc23)oc1N
CC50 [15]: > 50 µM (active)
IC50 (cells [14]): 23.2 µM (active)

CC(CC(=O)c1ccc(F)cc1)N1CCN(c2ccccc2)CC1 (centres undefined)
AC50 [11]: 34.3 µM (active)

CC(=N)/C(C#N)=C(/O)CSc1ncnc2ccccc12
EC50 [16]: > 300 µM (not active)
EC50 [17]: 8.02 µM (active)
IC50 (cells [14]): 17.9 µM (active)

COc1ccc(CN(C)C[C@@H]2OCCCC[C@@H](C)Oc3ccc(NC(=O)Nc4ccc(C(F)(F)F)cc4)cc3C(=O)N([C@H](C)CO)C[C@@H]2C)cc1
AC50 [8]: 2.48 µM (active)

C[C@H]1CN([C@@H](C)CO)C(=O)c2cccc(NC(=O)c3nc4ccccc4s3)c2O[C@H]1CN(C)C(=O)Nc1ccc(C(F)(F)F)cc1
AC50 [8]: 3.86 µM (active)

C/C=C/c1ccc([C@H]2[C@@H]3CN(C(=O)Nc4ccc(C(F)(F)F)cc4)C[C@H]2N3)cc1
AC50 [1]: 4.43 µM (active)
AC50 [2]: 25.8 µM (active)
AC50 [3]: 3.42 µM (active)
AC50 [4]: 5420 nM (active)
AC50 [10]: 25.2 µM (active)
AC50 [5]: 4.31 µM (active)

NCCCC[C@@H]1NC(=O)c2cc([N+](=O)[O-])cc(F)c2NCCCC[C@@H](C(N)=O)NC(=O)[C@H](CCC(N)=O)NC1=O
IC50 [7]: > 20 µM (inactive)
AC50 [11]: 8.88 µM (active)

Cc1ccc(-c2ccc([C@@H]3[C@@H]4CN(Cc5cccnc5)C[C@H]3N4)cc2)cc1
AC50 [3]: 0.457 µM (active)
AC50 [10]: 9.99 µM (active)

COCCCn1c(Cc2csc(Nc3cccc(Cl)c3)n2)nnc1SCC(=O)OC
IC50 (Estrogen receptor beta): 17 µM (not active)

COc1cccc(CN2CC3(C2)CN(C(=O)Nc2ccc(F)cc2)[C@@H](CO)c2c3c3ccc(OC)cc3n2C)c1
AC50 [3]: 2.98 µM (active)
AC50 [10]: 11.8 µM (active)

C[C@H](CO)N1C[C@H](C)[C@H](CN(C)C(=O)Nc2cccc3ccccc23)Oc2c(NC(=O)Nc3ccc(C(F)(F)F)cc3)cccc2C1=O
AC50 [8]: 6.42 µM (active)

c1ccc(-c2nnc(SCc3nnc(-c4cccs4)o3)o2)cc1
IC50 (cells [9]): 30.4 µM (active)

C[C@@H]1CN([C@H](C)CO)C(=O)c2cccc(NC(=O)CCCCCC(=O)Nc3ccccc3N)c2O[C@@H]1CN(C)Cc1ccc(-c2ccccc2)cc1
AC50 [8]: 4.22 µM (active)

C[C@H](CO)N1C[C@H](C)[C@H](CN(C)C(=O)Nc2ccc(F)cc2)Oc2c(NC(=O)Nc3cccc4ccccc34)cccc2C1=O
AC50 [8]: 1.79 µM (active)

COc1ccc(S(=O)(=O)Nc2ccc3c(c2)C(=O)N([C@H](C)CO)C[C@@H](C)[C@@H](CN(C)Cc2ccc(C(F)(F)F)cc2)OCCCC[C@H](C)O3)cc1
AC50 (Paired box protein Pax-8): 3.43 µM (active)
AC50 [18]: 5.6 µM (active)

CSCCOC(=O)COc1ccc(/C=N/NC(=O)c2c(Cl)cnn2C)cc1
IC50 (cells [9]): 4.7 µM (active)

C[N+]1(CC(=O)NNc2c3ccccc3nc3ccccc23)CCOCC1
AC50 [11]: 2.83 µM (active)

COc1ccc(C(=O)N2CC(c3ccc(Cl)cc3)CC2=O)cc1 (centres undefined)
IC50 (cells [14]): 31.5 µM (active)

OC(COc1ccc(C2C=CCC2)cc1)CN1CCCCC1 (centres undefined)
EC50 [19]: 40.2 µM (active)
IC50 (Estrogen receptor beta): 13.1 µM (not active)
EC50 [20]: 32 µM (active)
